Read-outs that look alike come from different tables or passages of the source.
Target: T1, F508del (Homo sapiens, UniProt P13569, DEL508-508)
T1 construct: expressed in transfected cells
Test: Protocol 2: FRET membrane potential optical assay (VIPR), identification of correction compounds
Assay type: cell-based
Method in brief: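 Corrector readout: membrane-potential FRET (CC2-DMPE donor, DiSBAC2(3) acceptor) on VIPR II after Cl⁻-free gluconate bath with 10 μM forskolin and 20 μM genistein. Before this, F508del-expressing NIH3T3 cells were exposed to test compound for 16 h at 37 °C without serum; 27 °C incubation served as temperature-correction control.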

[1] = F508del CFTR modulator activity, compounds of Table 1, read-out: EC30
[2] = Table 3, compounds of Table 1 as modulators of CFTR activity, protocol not stated

T1 sequence (P13569 with tags, fused parts or gaps DEL508-508): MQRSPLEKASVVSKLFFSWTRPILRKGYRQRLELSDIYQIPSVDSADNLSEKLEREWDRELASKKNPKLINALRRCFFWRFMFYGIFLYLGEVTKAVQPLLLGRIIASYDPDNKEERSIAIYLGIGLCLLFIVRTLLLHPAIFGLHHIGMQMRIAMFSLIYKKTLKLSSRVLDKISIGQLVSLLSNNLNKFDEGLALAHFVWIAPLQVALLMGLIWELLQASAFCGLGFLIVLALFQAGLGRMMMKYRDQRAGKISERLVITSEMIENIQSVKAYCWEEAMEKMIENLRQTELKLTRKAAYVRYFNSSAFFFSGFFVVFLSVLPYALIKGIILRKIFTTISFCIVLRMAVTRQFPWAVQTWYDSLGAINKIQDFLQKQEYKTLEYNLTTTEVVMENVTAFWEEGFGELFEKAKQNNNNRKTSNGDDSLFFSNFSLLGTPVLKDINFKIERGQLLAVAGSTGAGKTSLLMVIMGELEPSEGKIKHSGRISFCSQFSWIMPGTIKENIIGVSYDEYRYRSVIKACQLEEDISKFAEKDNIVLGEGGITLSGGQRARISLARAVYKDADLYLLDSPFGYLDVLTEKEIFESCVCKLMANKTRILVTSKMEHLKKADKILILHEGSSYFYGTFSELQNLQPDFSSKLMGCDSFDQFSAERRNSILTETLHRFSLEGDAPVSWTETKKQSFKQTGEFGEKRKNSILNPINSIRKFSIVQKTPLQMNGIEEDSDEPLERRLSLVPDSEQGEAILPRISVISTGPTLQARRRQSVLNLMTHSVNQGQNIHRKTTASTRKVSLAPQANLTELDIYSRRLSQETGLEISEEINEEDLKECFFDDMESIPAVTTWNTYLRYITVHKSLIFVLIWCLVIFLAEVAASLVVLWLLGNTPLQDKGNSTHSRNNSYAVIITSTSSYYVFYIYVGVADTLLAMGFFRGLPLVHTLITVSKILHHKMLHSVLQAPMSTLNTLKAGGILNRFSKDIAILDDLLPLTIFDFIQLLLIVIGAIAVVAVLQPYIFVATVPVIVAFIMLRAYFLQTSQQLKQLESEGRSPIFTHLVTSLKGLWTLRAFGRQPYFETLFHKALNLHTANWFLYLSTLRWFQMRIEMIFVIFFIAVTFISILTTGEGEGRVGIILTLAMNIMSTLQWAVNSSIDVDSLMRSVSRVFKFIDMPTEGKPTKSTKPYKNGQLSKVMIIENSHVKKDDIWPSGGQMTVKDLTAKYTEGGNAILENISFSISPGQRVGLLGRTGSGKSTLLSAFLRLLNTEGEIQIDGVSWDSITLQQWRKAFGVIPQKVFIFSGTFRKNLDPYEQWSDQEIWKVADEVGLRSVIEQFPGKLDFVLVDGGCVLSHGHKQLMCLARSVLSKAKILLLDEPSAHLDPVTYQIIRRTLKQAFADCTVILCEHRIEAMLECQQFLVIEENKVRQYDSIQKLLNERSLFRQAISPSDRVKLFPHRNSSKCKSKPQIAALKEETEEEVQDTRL

EC30 [1] | EC30 [2] | SMILES
< 3000 nM |  | C[C@@H]1CN(c2nc(CCC3CC3)ccc2C(=O)NS(=O)(=O)c2cccnc2N)C(C)(C)C1 [Compound 2553, N-[(2-amino-3-pyridyl)sulfonyl]-6-(2-cyclopropylethyl)-2-[(4S)-2,2,4-trimethylpyrrolidin-1-yl]pyridine-3-carboxamide]
< 3000 nM |  | CC(C)c1ccccc1-c1ccc(C(=O)NS(=O)(=O)c2ccc[nH]c2=O)c(N2C[C@@H](C)CC2(C)C)n1 [Compound 2635, 6-(2-isopropylphenyl)-N-[(2-oxo-1H-pyridin-3-yl)sulfonyl]-2-[(4S)-2,2,4-trimethylpyrrolidin-1-yl]pyridine-3-carboxamide]
< 3000 nM |  | CC1CN(c2ncccc2C(=O)NS(=O)(=O)c2cccc(Nc3ccc(N4CCCCC4)cc3)n2)C(C)(C)C1 (centres unmarked) [Compound 2087, N—[[6-[4-(1-piperidyl)anilino]-2-pyridyl]sulfonyl]-2-(2,2,4-trimethylpyrrolidin-1-yl)pyridine-3-carboxamide]
< 3000 nM |  | CC1CN(c2ncccc2C(=O)NS(=O)(=O)c2cccc(OCCc3cccc(F)c3)n2)C(C)(C)C1 (centres unmarked) [Compound 2740]
< 3000 nM |  | CCOC(=O)c1cccc(Nc2cccc(S(=O)(=O)NC(=O)c3cccnc3N3CC(C)CC3(C)C)n2)c1 (centres unmarked) [Compound 2060, ethyl 3-[[6-[[2-(2,2,4-trimethylpyrrolidin-1-yl)pyridine-3-carbonyl]sulfamoyl]-2-pyridyl]amino]benzoate]
< 3000 nM |  | CC1CN(c2ncccc2C(=O)NS(=O)(=O)c2cccc(OCc3cccs3)n2)C(C)(C)C1 (centres unmarked) [Compound 2181, N—[[6-(2-thienylmethoxy)-2-pyridyl]sulfonyl]-2-(2,2,4-trimethylpyrrolidin-1-yl)pyridine-3-carboxamide]
3000 to 10000 nM |  | COc1ncc(-c2ccc(C(=O)NS(=O)(=O)c3ccc[nH]c3=O)c(N3C[C@@H](C)CC3(C)C)n2)cc1F [Compound 2444, 6-(5-fluoro-6-methoxy-3-pyridyl)-N-[(2-oxo-1H-pyridin-3-yl)sulfonyl]-2-[(4S)-2,2,4-trimethylpyrrolidin-1-yl]pyridine-3-carboxamide]
< 3000 nM |  | CC1CN(c2ncccc2C(=O)NS(=O)(=O)c2cccc(Nc3ccccn3)n2)C(C)(C)C1 (centres unmarked) [Compound 2068, N—[[6-(2-pyridylamino)-2-pyridyl]sulfonyl]-2-(2,2,4-trimethylpyrrolidin-1-yl)pyridine-3-carboxamide]
3000 to 10000 nM |  | C[C@@H]1CN(c2nc(C3=CCCN(C(=O)NC(C)(C)C)C3)ccc2C(=O)NS(=O)(=O)c2cccc(N)n2)C(C)(C)C1 [Compound 2568, N-[(6-amino-2-pyridyl)sulfonyl]-6-[1-(tert-butylcarbamoyl)-3,6-dihydro-2H-pyridin-5-yl]-2-[(4S)-2,2,4-trimethylpyrrolidin-1-yl]pyridine-3-carboxamide]
< 3000 nM |  | CC1CN(c2ncccc2C(=O)NS(=O)(=O)c2cccc(Oc3ccccc3Cl)n2)C(C)(C)C1 (centres unmarked) [Compound 2298, N—[[6-(2-chlorophenoxy)-2-pyridyl]sulfonyl]-2-(2,2,4-trimethylpyrrolidin-1-yl)pyridine-3-carboxamide]

Second part, the compound before the results:

SMILES | EC30 [1] | EC30 [2]
CC(C)COc1cc(F)cc(-c2ccc(C(=O)NS(=O)(=O)c3cccc(N)n3)c(N3CC[C@H](C)C3(C)C)n2)c1 [Compound 547, N-[(6-amino-2-pyridyl)sulfonyl]-6-(3-fluoro-5-isobutoxy-phenyl)-2-[(3S)-2,2,3-trimethylpyrrolidin-1-yl]pyridine-3-carboxamide] |  | +++ (“+++” means <3 uM)
Cc1cc(OC2CCCC2)cc(-c2cnc(N3CC(C)CC3(C)C)c(C(=O)NS(=O)(=O)c3cccc(N)n3)c2)c1 (centres unmarked) [Compound 2313, N-[(6-amino-2-pyridyl)sulfonyl]-5-[3-(cyclopentoxy)-5-methyl-phenyl]-2-(2,2,4-trimethylpyrrolidin-1-yl)pyridine-3-carboxamide] | < 3000 nM | 
CC1CN(c2ncccc2C(=O)NS(=O)(=O)c2cccc(NCc3cccs3)n2)C(C)(C)C1 (centres unmarked) [Compound 2004, N—[[6-(2-thienylmethylamino)-2-pyridyl]sulfonyl]-2-(2,2,4-trimethylpyrrolidin-1-yl)pyridine-3-carboxamide] | < 3000 nM | 
Cc1cc(C)c(Cc2cn(C(C)(C)C)nc2C(=O)NS(=O)(=O)c2cccc(N)c2)c(C)c1 [Compound 367] |  | +++ (“+++” means <3 uM)
Cc1cc(C)c(Cn2nc(C(C)(C)C)cc2C(=O)C(C)S(=O)(=O)c2ccccc2)c(C)c1 (racemic) [Compound 139, 2-(benzenesulfonyl)-1-[5-tert-butyl-2-[(2,4,6-trimethylphenyl)methyl]pyrazol-3-yl]propan-1-one] |  | +++ (“+++” means <3 uM)
CCC(C)(C)C1CCCN1c1nc(-c2cc(F)cc(OCC(C)C)c2)ccc1C(=O)NS(=O)(=O)c1cccc(N)n1 (centres unmarked) [Compound 493, N-[(6-amino-2-pyridyl)sulfonyl]-2-[2-(1,1-dimethylpropyl)pyrrolidin-1-yl]-6-(3-fluoro-5-isobutoxy-phenyl)pyridine-3-carboxamide] |  | +++ (“+++” means <3 uM)
COC(=O)[C@@H]1CCCN1c1nc(-c2cc(F)cc(OCC(C)C)c2)ccc1C(=O)NS(=O)(=O)c1cccc(N)n1 [Compound 385, methyl (2S)-1-[3-[(6-amino-2-pyridyl)sulfonylcarbamoyl]-6-(3-fluoro-5-isobutoxy-phenyl)-2-pyridyl]pyrrolidine-2-carboxylate] |  | +++ (“+++” means <3 uM)
CCCN(CC1CC1)c1nc(-c2ccc(OC(C)C)nc2)ccc1C(=O)NS(=O)(=O)c1cccc(N)n1 [Compound 500, N-[(6-amino-2-pyridyl)sulfonyl]-2-[cyclopropylmethyl(propyl)amino]-6-(6-isopropoxy-3-pyridyl)pyridine-3-carboxamide] |  | +++ (“+++” means <3 uM)
Cc1cc(C)c(Oc2nc3ccccc3cc2C(=O)NS(=O)(=O)c2ccncc2)c(C)c1 [Compound 240, N-(4-pyridylsulfonyl)-2-(2,4,6-trimethylphenoxy)quinoline-3-carboxamide] |  | ++ (“++” means between 3 uM and 10 uM)
CC(C)Oc1ccc(-c2ccc(C(=O)NS(=O)(=O)c3ccc[nH]c3=O)c(N3[C@H](C)CC[C@@H]3C)n2)cn1 [Compound 770, 2-[(2S,5R)-2,5-dimethylpyrrolidin-1-yl]-6-(6-isopropoxy-3-pyridyl)-N-[(2-oxo-1H-pyridin-3-yl)sulfonyl]pyridine-3-carboxamide] |  | ++ (“++” means between 3 uM and 10 uM)
CC[C@H](C)COc1ccn(-c2ccc(C(=O)NS(=O)(=O)c3cccnc3N)c(N3C[C@@H](C)CC3(C)C)n2)n1 [Compound 2458, N-[(2-amino-3-pyridyl)sulfonyl]-6-[3-[(2S)-2-methylbutoxy]pyrazol-1-yl]-2-[(4S)-2,2,4-trimethylpyrrolidin-1-yl]pyridine-3-carboxamide] | < 3000 nM | 
Cc1cc(C)c(Oc2nc(C(C)(C)C)ccc2C(=O)NS(=O)(=O)c2nc(N)cs2)c(C)c1 [Compound 265, N-(4-aminothiazol-2-yl)sulfonyl-6-tert-butyl-2-(2,4,6-trimethylphenoxy)pyridine-3-carboxamide] |  | +++ (“+++” means <3 uM)
Cc1cc(C)c(CN2Cc3c(-c4ccccc4)cccc3C2C(=O)NS(=O)(=O)c2ccc[nH]c2=O)c(C)c1 (centres unmarked) [Compound 508, N-[(2-oxo-1H-pyridin-3-yl)sulfonyl]-4-phenyl-2-[(2,4,6-trimethylphenyl)methyl]isoindoline-1-carboxamide] |  | ++ (“++” means between 3 uM and 10 uM)

— US10758534B2 (Vertex Pharmaceuticals Incorporated, priority 2014, dated 2020)
